For 2 molecules, NF-κB activation, pro-IL-1β induction and NLRP3 induction results are on record in US20210267996A1, “Compounds for inhibition of inflammation” (Children`s Medical Center Corporation, priority 2018, published 2021).

Each structure is given as a SMILES string.

In the assay the test system is NF-κB activation. The experiment in a line: Inflammasome priming by LPS in THP-1 cells (immunoblot). It is filed as cell-based, human. Conditions: for NF-κB activation / pro-IL-1β induction: 30 μM, 1 hr before LPS; for NLRP3 induction: 1 hour before LPS. The procedure:
Immunoblot analysis: cell extracts were prepared using RIPA buffer (50 mM Tris-HCl pH 7.4, 150 mM NaCl, 1 mM EDTA, 1% Triton X-100, 0.1% SDS, 0.5% deoxycholate) supplemented with a complete protease inhibitor cocktail (Roche) and a PhosSTOP phosphatase inhibitor cocktail (Roche). Samples were subjected to SDS-PAGE and the resolved proteins were then transferred to a PVDF membrane (Millipore). Immunoblots were probed with indicated antibodies and visualized using a SuperSignal West Pico chemiluminescence ECL kit (Pierce).
Because both disulfiram and Bay 11-7082 non-specifically modify reactive Cys, their effects on the steps leading to pyroptosis and inflammatory caspase activation were next analyzed. Some of the genes that participate in the canonical inflammasome pathway are not expressed in unstimulated cells and their expression needs to be induced, often by binding to cell surface sensors of pathogen and danger-associated molecular patterns, such as Toll-like receptors (TLR), in a process called priming. Bay 11-7082 is known to inhibit NF-κB activation, a key transcription factor in priming. The effect of disulfiram and Bay 11-7082 on priming were first examined (FIG. 45). NF-κB activation was assessed by examining IκBα phosphorylation and degradation and RelA (p65) phosphorylation. Induction of pro-IL-1β was assessed by immunoblot for pro-IL1β protein. In the absence of disulfiram or Bay 11-7082, phosphorylation of p65 was first detected 30 min after adding LPS and persisted for 4 hrs, phosphorylation and reduced IκBα. were detected 1 hr after adding LPS, and increased pro-IL-1β was detected 4 hrs after adding LPS. […] Thus, disulfiram and Bay 11-7082 both inhibit priming.
Cell death was determined by CytoTox96 assay. […] Cell death was determined by CytoTox96 assay. […] Shown are immunoblots of whole cell lysates harvested 0.5 hr later. […] Representative images of ASC specks (arrowheads) and mean±s.d. percent of cells with ASC specks analyzed 20 min later (FIG. 47). Whole cell lysates (WCL) and culture supernatants (Sup) were harvested 30 min after adding nigericin and immunoblotted with the indicated antibodies (FIG. 50). Caspase-1 activity was assayed 30 min after adding nigericin using a cell-permeable fluorescence dye FAM-YVAD-FMK (FIG. 52). […] Representative images of ASC specks (arrowheads) and mean±s.d. percent of cells with ASC specks analyzed 20 min later (FIGS. 48 and 49). Whole cell lysates (WCL) and culture supernatants (Sup), harvested 30 min after adding nigericin, were analyzed by immunoblot (FIG. 51). […] The Figures show representative confocal microscopy images and quantification of proportion of cells with GSDMD membrane staining and pyroptotic bubbles. Arrows indicate GSDMD staining of pyroptotic bubbles. […] FIGS. 57 and 58, dose response curve of the effect of Bay 11-7082 on caspase-1 (FIG. 57) and caspase-11 (FIG. 58) activity against a fluorescent peptide substrate. FIGS. 59 and 60 show MS/MS spectra of the Cys191-containing GSDMD peptide […] (FIG. 60). FIGS. 61 and 62 show dose response curve of the effect of Bay 11-7082 on liposome leakage induced by 0.3 μM human GSDMD-3C (FIG. 61) or mouse GSDMA3-3C (FIG. 62) plus 0.15 μM 3C protease. […] 2-fold dilutions of Bay 11-7082 from 5-40 μM were used. Graphs show the mean±s.d; data are representative of three independent experiments. *P<0.05, **P<0.01.
To elucidate the cellular mechanism of pyroptosis inhibition by disulfiram, its effects on the entire inflammasome activation pathway were analyzed. Some of the genes that participate in the canonical inflammasome pathway are not expressed in unstimulated cells and their expression needs to be induced, often by binding to cell surface sensors of pathogen and danger-associated molecular patterns, such as Toll-like receptors (TLR), in a process called priming. […]

For `CCN(CC)C(=S)SSC(=S)N(CC)CC` [C-23, Tetraethylthiuram disulfide], the NF-κB activation entry was “inhibited NF-κB activation” and the NLRP3 induction result is on record as “blocked”. Besides, the pro-IL-1β induction result (listed as disulfiram) is “blocked pro-IL-1β induction”.

`Cc1ccc(S(=O)(=O)/C=C/C#N)cc1` [Bay 11-7082]: the NF-κB activation result is listed as “had a stronger effect”, the pro-IL-1β induction entry is listed as “blocked pro-IL-1β induction” and the NLRP3 induction result is on record as “blocked”.
